# Data taken from ChEMBL document CHEMBL2203135, “Novel progesterone receptor modulators: 4-aryl-phenylsulfonamides” (Bioorg Med Chem Lett, 2012).
# How the values were obtained:
# Progesterone receptor = biological target: T1, Progesterone receptor (Homo sapiens, UniProt P06401); experiment: Antagonist activity against progesterone receptor in human T47D cells by alkaline phosphatase assay; format: functional, cell-based
# T1 sequence (P06401 whole entry): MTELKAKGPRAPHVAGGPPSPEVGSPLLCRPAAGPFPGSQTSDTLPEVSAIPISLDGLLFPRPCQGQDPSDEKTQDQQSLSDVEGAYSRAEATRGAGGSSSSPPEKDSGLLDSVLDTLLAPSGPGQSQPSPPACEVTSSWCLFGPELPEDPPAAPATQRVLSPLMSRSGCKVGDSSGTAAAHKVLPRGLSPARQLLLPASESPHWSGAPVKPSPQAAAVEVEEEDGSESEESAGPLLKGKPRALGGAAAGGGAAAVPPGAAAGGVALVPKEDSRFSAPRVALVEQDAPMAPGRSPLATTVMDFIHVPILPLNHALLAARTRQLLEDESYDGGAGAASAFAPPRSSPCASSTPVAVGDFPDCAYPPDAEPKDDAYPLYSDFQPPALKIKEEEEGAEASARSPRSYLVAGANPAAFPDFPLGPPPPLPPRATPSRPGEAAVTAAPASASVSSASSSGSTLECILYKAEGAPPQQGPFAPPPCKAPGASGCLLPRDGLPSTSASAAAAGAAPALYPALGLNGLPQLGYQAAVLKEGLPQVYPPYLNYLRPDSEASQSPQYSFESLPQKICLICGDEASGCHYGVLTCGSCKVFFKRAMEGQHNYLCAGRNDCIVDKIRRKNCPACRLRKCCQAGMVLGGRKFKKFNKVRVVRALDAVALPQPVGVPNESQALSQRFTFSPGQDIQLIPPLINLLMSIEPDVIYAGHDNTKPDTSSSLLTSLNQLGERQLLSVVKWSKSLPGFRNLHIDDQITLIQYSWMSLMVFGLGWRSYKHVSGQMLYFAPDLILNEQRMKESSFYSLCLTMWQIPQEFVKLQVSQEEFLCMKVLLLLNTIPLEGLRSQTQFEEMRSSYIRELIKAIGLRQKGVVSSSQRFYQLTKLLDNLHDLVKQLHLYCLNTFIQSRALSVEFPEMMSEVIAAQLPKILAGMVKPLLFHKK
# [1] = biological target: T2, Progesterone receptor (Homo sapiens) (UniProt P06401); experiment: Antagonist activity against progesterone receptor in human T47D cells at 3 uM by alkaline phosphatase assay; format: functional, cell-based
# T2 sequence (whole entry): T1 sequence (P06401 whole entry)
# Salmonella typhimurium [2] = experiment: Mutagenicity in Salmonella typhimurium in presence of liver S9 fraction by non-GLP Ames test; format: toxicity, organism-based; conditions: salmonella enterica subsp. enterica serovar typhimurium
# [3] = AUC (0 to infinity) in rat at 20 mg/kg, po administered as single dose; format: ADME, organism-based; design: time infinity, dose 20 mg/kg, route oral; conditions: plasma
# [4] = Half life in rat at 20 mg/kg, po administered as single dose; format: ADME, organism-based; design: dose 20 mg/kg, route oral; conditions: in vivo
# [5] = Cmax in rat at 20 mg/kg, po administered as single dose; format: ADME, organism-based; design: dose 20 mg/kg, route oral; conditions: in vivo
# Salmonella typhimurium [6] = experiment: Mutagenicity in Salmonella typhimurium in absence of liver S9 fraction by non-GLP Ames test; format: toxicity, organism-based; conditions: salmonella enterica subsp. enterica serovar typhimurium
IC50 (Progesterone receptor) [µM],Structure (SMILES),Activity (Salmonella typhimurium [2]),other results
> 3,Cn1c(C#N)ccc1-c1ccc(NS(C)(=O)=O)c(C#N)c1,,
,CC(C)c1ccc(S(=O)(=O)Nc2ccc(-c3ccc(C#N)n3C)cc2)cc1,,inhibition [1]: 54%
0.128,CCS(=O)(=O)Nc1ccc(-c2ccc(C#N)n2C)c(C#N)c1,,
0.012,CCS(=O)(=O)Nc1ccc(-c2ccc(C#N)n2C)c(C(F)(F)F)c1,Non-toxic,
0.075,CC(=O)Nc1ccc(-c2ccc(C#N)n2C)cc1,,AUC(0-inf) [3]: 1640 ng·h/mL; half-life [4]: 5 h; Cmax [5]: 0.7 µM
0.006,CCS(=O)(=O)Nc1ccc(-c2ccc(C#N)n2C)c(F)c1,,
,Cc1ccc(S(=O)(=O)Nc2ccc(-c3ccc(C#N)n3C)cc2)cc1,,inhibition [1]: 55%
0.009,CCS(=O)(=O)Nc1ccc(-c2ccc(C#N)n2C)cc1,Toxic,AUC(0-inf) [3]: 12300 ng·h/mL; Activity (Salmonella typhimurium [6]): Non-toxic; half-life [4]: 2.5 h; Cmax [5]: 6.7 µM
0.01,CCCS(=O)(=O)Nc1ccc(-c2ccc(C#N)n2C)cc1,,
0.008,Cn1c(C#N)ccc1-c1ccc(NS(C)(=O)=O)cc1F,Non-toxic,Activity (Salmonella typhimurium [6]): Non-toxic
0.008,Cn1c(C#N)ccc1-c1ccc(NS(C)(=O)=O)cc1,,
,Cn1c(C#N)ccc1-c1ccc(N)cc1,Toxic,AUC(0-inf) [3]: 3080 ng·h/mL; half-life [4]: 2.5 h; Cmax [5]: 3.2 µM

Structure (SMILES),IC50 (Progesterone receptor) [µM],Activity (Salmonella typhimurium [2]),other results
CCS(=O)(=O)Nc1cc(F)c(-c2ccc(C#N)n2C)cc1F,0.057,,
